# Source: ChEMBL document CHEMBL3046161, “Synthesis of potential antitubercular and antimicrobial s-triazine-based scaffolds via Suzuki cross-coupling reaction” (2013)
# What was measured:
# Format in all cases: functional
# [1] = test system: Aspergillus clavatus; assay: Antifungal activity against Aspergillus clavatus MTCC 1323 assessed as growth inhibition at 3.12 to 50 ug/mL after 24 hr by agar disk diffusion method
# [2] = test system: Staphylococcus aureus; assay: Antibacterial activity against Staphylococcus aureus MTCC 96 assessed as growth inhibition after 24 hr by agar streak dilution method; details: MTCC 96, 24 h
# [3] = test system: Aspergillus niger; assay: Antifungal activity against Aspergillus niger MTCC 282 assessed as growth inhibition at 3.12 to 50 ug/mL after 24 hr by agar disk diffusion method
# [4] = test system: Aspergillus fumigatus; assay: Antifungal activity against Aspergillus fumigatus MTCC 343 assessed as growth inhibition after 48 hr by agar streak dilution method; details: MTCC 343, 48 h
# [5] = test system: Shigella flexneri; assay: Antibacterial activity against Shigella flexneri MTCC 1457 assessed as growth inhibition after 24 hr by agar streak dilution method; details: MTCC 1457, 24 h
# [6] = test system: Proteus vulgaris; assay: Antibacterial activity against Proteus vulgaris MTCC 1771 assessed as growth inhibition at 3.12 to 50 ug/mL after 24 hr by agar disk diffusion method
# [7] = test system: Aspergillus clavatus; assay: Antifungal activity against Aspergillus clavatus MTCC 1323 assessed as growth inhibition after 48 hr by agar streak dilution method; details: MTCC 1323, 48 h
# [8] = test system: Staphylococcus aureus; assay: Antibacterial activity against Staphylococcus aureus MTCC 96 assessed as growth inhibition at 3.12 to 50 ug/mL after 24 hr by agar disk diffusion method
# [9] = test system: Bacillus cereus; assay: Antibacterial activity against Bacillus cereus MTCC 430 assessed as growth inhibition at 3.12 to 50 ug/mL after 24 hr by agar disk diffusion method
# [10] = test system: Candida albicans; assay: Antifungal activity against Candida albicans MTCC 183 assessed as growth inhibition at 3.12 to 50 ug/mL after 24 hr by agar disk diffusion method
# [11] = test system: Shigella flexneri; assay: Antibacterial activity against Shigella flexneri MTCC 1457 assessed as growth inhibition at 3.12 to 50 ug/mL after 24 hr by agar disk diffusion method
# [12] = test system: Proteus vulgaris; assay: Antibacterial activity against Proteus vulgaris MTCC 1771 assessed as growth inhibition after 24 hr by agar streak dilution method; details: MTCC 1771, 24 h
# [13] = test system: Salmonella typhi; assay: Antibacterial activity against Salmonella enterica subsp. enterica serovar Typhi MTCC 733 assessed as growth inhibition at 3.12 to 50 ug/mL after 24 hr by agar disk diffusion method
# [14] = test system: Pseudomonas aeruginosa; assay: Antibacterial activity against Pseudomonas aeruginosa MTCC 741 assessed as growth inhibition after 24 hr by agar streak dilution method; details: MTCC 741, 24 h
# [15] = test system: Salmonella typhi; assay: Antibacterial activity against Salmonella enterica subsp. enterica serovar Typhi MTCC 733 assessed as growth inhibition after 24 hr by agar streak dilution method; details: MTCC 733, 24 h
# [16] = test system: Mycobacterium tuberculosis; assay: Antimycobacterial activity against Mycobacterium tuberculosis H37Rv assessed as growth inhibition measured within 10 days by BACTEC MGIT method; details: 240 h
# [17] = test system: Pseudomonas aeruginosa; assay: Antibacterial activity against Pseudomonas aeruginosa MTCC 741 assessed as growth inhibition at 3.12 to 50 ug/mL after 24 hr by agar disk diffusion method
# [18] = test system: Mycobacterium tuberculosis; assay: Antimycobacterial activity against Mycobacterium tuberculosis H37Rv assessed as growth inhibition at MIC after 12 to 28 days by Lowenstein and Jensen agar dilution method
# [19] = test system: Aspergillus fumigatus; assay: Antifungal activity against Aspergillus fumigatus MTCC 343 assessed as growth inhibition at 3.12 to 50 ug/mL after 24 hr by agar disk diffusion method
# [20] = test system: Escherichia coli; assay: Antibacterial activity against Escherichia coli MTCC 739 assessed as growth inhibition after 24 hr by agar streak dilution method; details: MTCC 739, 24 h
# [21] = test system: Klebsiella pneumoniae; assay: Antibacterial activity against Klebsiella pneumoniae MTCC 109 assessed as growth inhibition after 24 hr by agar streak dilution method; details: MTCC 109, 24 h
# [22] = test system: Mycobacterium tuberculosis; assay: Antimycobacterial activity against Mycobacterium tuberculosis H37Rv assessed as growth inhibition after 12 to 28 days by Lowenstein and Jensen agar dilution method
# [23] = test system: Bacillus cereus; assay: Antibacterial activity against Bacillus cereus MTCC 430 assessed as growth inhibition after 24 hr by agar streak dilution method; details: MTCC 430, 24 h
# [24] = test system: Escherichia coli; assay: Antibacterial activity against Escherichia coli MTCC 739 assessed as growth inhibition at 3.12 to 50 ug/mL after 24 hr by agar disk diffusion method
# [25] = test system: Klebsiella pneumoniae; assay: Antibacterial activity against Klebsiella pneumoniae MTCC 109 assessed as growth inhibition at 3.12 to 50 ug/mL after 24 hr by agar disk diffusion method
# [26] = test system: Candida albicans; assay: Antifungal activity against Candida albicans MTCC 183 assessed as growth inhibition after 48 hr by agar streak dilution method; details: MTCC 183, 48 h
# [27] = test system: Aspergillus niger; assay: Antifungal activity against Aspergillus niger MTCC 282 assessed as growth inhibition after 48 hr by agar streak dilution method; details: MTCC 282, 48 h
SMILES,inhibition zone (IZ) [1],MIC [2],inhibition zone (IZ) [3],MIC [4],MIC [5],inhibition zone (IZ) [6],MIC [7],inhibition zone (IZ) [8],inhibition zone (IZ) [9],inhibition zone (IZ) [10],inhibition zone (IZ) [11],MIC [12],inhibition zone (IZ) [13],MIC [14],MIC [15],MIC [16],inhibition zone (IZ) [17],growth inhibition (GI) [18],inhibition zone (IZ) [19],MIC [20],also measured
CC(=O)Nc1ccc2nc(NC(=O)CNc3ccc(-c4nc(N5CC(C)CC(C)C5)nc(N5CC(C)CC(C)C5)n4)cc3)sc2c1 (stereo not given),24 mm,50 µg/mL,24 mm,> 50 µg/mL,50 µg/mL,26 mm,50 µg/mL,19 mm,17 mm,22 mm,13 mm,6.25 µg/mL,17 mm,50 µg/mL,50 µg/mL,> 6.25 µg/mL,19 mm,98%,<10 mm,50 µg/mL,MIC [21]: 50 µg/mL; MIC [22]: 50 µg/mL; MIC [23]: 50 µg/mL; inhibition zone (IZ) [24]: 19 mm; inhibition zone (IZ) [25]: 21 mm; MIC [26]: 25 µg/mL; MIC [27]: 6.25 µg/mL
CC1CC(C)CN(c2nc(-c3ccc(NCC(=O)Nc4nc5ccc([N+](=O)[O-])cc5s4)cc3)nc(N3CC(C)CC(C)C3)n2)C1 (stereo not given),28 mm,12.5 µg/mL,23 mm,50 µg/mL,50 µg/mL,19 mm,25 µg/mL,22 mm,26 mm,16 mm,21 mm,50 µg/mL,19 mm,50 µg/mL,50 µg/mL,> 6.25 µg/mL,18 mm,98%,22 mm,50 µg/mL,MIC [21]: 50 µg/mL; MIC [22]: 50 µg/mL; MIC [23]: 12.5 µg/mL; inhibition zone (IZ) [24]: 18 mm; inhibition zone (IZ) [25]: 18 mm; MIC [26]: 50 µg/mL; MIC [27]: 12.5 µg/mL
CC1CC(C)CN(c2nc(-c3ccc(NCC(=O)Nc4nc5ccc(C#N)cc5s4)cc3)nc(N3CC(C)CC(C)C3)n2)C1 (stereo not given),16 mm,6.25 µg/mL,19 mm,50 µg/mL,50 µg/mL,22 mm,50 µg/mL,24 mm,22 mm,<10 mm,22 mm,25 µg/mL,18 mm,50 µg/mL,50 µg/mL,> 6.25 µg/mL,18 mm,95%,22 mm,6.25 µg/mL,MIC [21]: 25 µg/mL; MIC [22]: 100 µg/mL; MIC [23]: 50 µg/mL; inhibition zone (IZ) [24]: 25 mm; inhibition zone (IZ) [25]: 27 mm; MIC [26]: > 50 µg/mL; MIC [27]: 25 µg/mL
Cc1ccc2nc(NC(=O)CNc3ccc(-c4nc(N5CC(C)CC(C)C5)nc(N5CC(C)CC(C)C5)n4)cc3)sc2c1 (stereo not given),<10 mm,50 µg/mL,<10 mm,> 50 µg/mL,50 µg/mL,20 mm,> 50 µg/mL,15 mm,19 mm,13 mm,12 mm,50 µg/mL,<10 mm,50 µg/mL,50 µg/mL,> 6.25 µg/mL,15 mm,97%,<10 mm,50 µg/mL,MIC [21]: 50 µg/mL; MIC [22]: 250 µg/mL; MIC [23]: 50 µg/mL; inhibition zone (IZ) [24]: 16 mm; inhibition zone (IZ) [25]: 16 mm; MIC [26]: 50 µg/mL; MIC [27]: 50 µg/mL
COc1ccc2nc(NC(=O)CNc3ccc(-c4nc(N5CC(C)CC(C)C5)nc(N5CC(C)CC(C)C5)n4)cc3)sc2c1 (stereo not given),23 mm,1.56 µg/mL,19 mm,> 50 µg/mL,12.5 µg/mL,27 mm,50 µg/mL,26 mm,25 mm,25 mm,25 mm,6.25 µg/mL,20 mm,50 µg/mL,50 µg/mL,> 6.25 µg/mL,20 mm,98%,<10 mm,25 µg/mL,MIC [21]: 50 µg/mL; MIC [22]: 12.5 µg/mL; MIC [23]: 12.5 µg/mL; inhibition zone (IZ) [24]: 20 mm; inhibition zone (IZ) [25]: 23 mm; MIC [26]: 12.5 µg/mL; MIC [27]: 25 µg/mL
